{"source": "patent US20070172421A1", "about": "“Substituted pyrrolidine-2-ones” (priority 2004, published 2007)", "note": "Where a name gives a salt, the structure may show the parent alone."}
{"units": {"melting point": "°C"}}
{"smiles": "CN1C(=O)[C@@H](CN2CCCCC2)C[C@H]1C#Cc1ccccc1Cl.Cl", "note": "[Example D5]", "melting point": "166 to 169"}
{"smiles": "CN1C(=O)[C@@H](CN2CCCCC2)C[C@H]1C#Cc1ccccc1Cl.Cl", "note": "[Example D6]", "melting point": "160 to 165"}
{"smiles": "CN1C(=O)[C@@H](CN2CCCCC2)C[C@H]1c1ccc(-c2ccccc2Cl)cc1.Cl", "note": "[Example H2]", "melting point": "134 to 139"}
{"smiles": "Cc1cc(C)cc([C@@H]2C[C@H](CN3CCCCC3)C(=O)N2C)c1.Cl", "note": "[Example A3]", "melting point": "184 to 190"}
{"smiles": "CN1C(=O)[C@@H](CN2CCCCC2)C[C@H]1C#Cc1ccccc1.Cl", "note": "[Example D3]", "melting point": "197 to 201"}
{"smiles": "CN1C(=O)[C@@H](CN2CCCCC2)C[C@H]1c1cnc(-c2ccccc2Cl)s1.Cl", "note": "[Example F1]", "melting point": "178 to 183"}
{"smiles": "CN1C(=O)[C@@H](CN2CCCCC2)C[C@H]1c1cnc(-c2ccccc2Cl)s1.Cl", "note": "[Example F2]", "melting point": "171 to 176"}
{"smiles": "CN1C(=O)C(CN2CCCCC2)CC1C1CC1c1ccccc1Cl", "note": "(stereo not shown) [Example C2, 5-[2-(2-Chloro-phenyl)-cyclopropyl]-1-methyl-3-piperidin-1-ylmethyl-pyrrolidin-2-one]", "melting point": "87 to 90"}
{"smiles": "CN1C(=O)[C@@H](CN2CCCCC2)C[C@H]1c1ccc2c(c1)CCCC2.Cl", "note": "[Example A6]", "melting point": "234 to 238"}
{"smiles": "Cc1ccc([C@@H]2C[C@H](CN3CCCCC3)C(=O)N2C)cc1C.Cl", "note": "[Example A1]", "melting point": "143 to 147"}
{"smiles": "CN1C(=O)[C@@H](CN2CCCCC2)C[C@H]1c1cnc(-c2sccc2Cl)s1.Cl", "note": "[Example F3]", "melting point": "215 to 220"}
{"smiles": "CN1C(=O)[C@@H](CN2CCCCC2)C[C@H]1C#Cc1ccccc1.Cl", "note": "[Example D4]", "melting point": "199 to 203"}
{"smiles": "CN1C(=O)[C@@H](CN2CCCCC2)C[C@H]1c1ccc(Br)s1", "note": "[Example E1, (+)-cis-5-(5-Bromo-thiophen-2-yl)-1-methyl-3-piperidin-1-ylmethyl-pyrrolidin-2-one]", "melting point": "69 to 71"}
{"smiles": "CN1C(=O)[C@@H](CN2CCCCC2)C[C@H]1c1ccc2c(c1)CCCC2.Cl", "note": "[Example A5]", "melting point": "208 to 210"}
{"smiles": "Cc1ccc([C@@H]2C[C@H](CN3CCCCC3)C(=O)N2C)cc1C.Cl", "note": "[Example A2]", "melting point": "138 to 142"}
{"smiles": "CC(=O)Nc1ccccc1C#C[C@H]1C[C@@H](CN2CCCCC2)C(=O)N1C.Cl", "melting point": "135 to 140"}
{"smiles": "Cc1cc(C)cc([C@@H]2C[C@H](CN3CCCCC3)C(=O)N2C)c1.Cl", "note": "[Example A4]", "melting point": "172 to 180"}
{"smiles": "CN1C(=O)[C@@H](CN2CCCCC2)C[C@H]1c1ccc(-c2cccc(Cl)c2)s1.Cl", "note": "[Example E10]", "melting point": "155 to 158"}
{"smiles": "CN1C(=O)[C@@H](CN2CCCCC2)C[C@H]1c1ccc(-c2cccc(Cl)c2)s1.Cl", "note": "[Example E9]", "melting point": "162 to 163"}
{"smiles": "Cc1cccc(C#C[C@@H]2C[C@H](CN3CCCCC3)C(=O)N2C)c1.Cl", "note": "[Example D2]", "melting point": "169 to 172"}
{"smiles": "CN1C(=O)[C@@H](CN2CCCCC2)C[C@H]1c1cnc(-c2sccc2Cl)s1.Cl", "note": "[Example F4]", "melting point": "207 to 210"}
{"smiles": "Cc1cccc(C#C[C@@H]2C[C@H](CN3CCCCC3)C(=O)N2C)c1.Cl", "note": "[Example D1]", "melting point": "163 to 167"}
{"smiles": "CN1C(=O)[C@@H](CN2CCCCC2)C[C@H]1c1ccc(Br)cc1", "note": "(as salt: HCl) [Example A7, (−)-cis-5-(4-Bromo-phenyl)-1-methyl-3-piperidin-1-ylmethyl-pyrrolidin-2-one]", "melting point": "55 to 58"}
{"smiles": "CN1C(=O)[C@@H](CN2CCCCC2)C[C@H]1c1ccc(-c2ccccc2Cl)cc1.Cl", "note": "[Example H3]", "melting point": "130 to 135"}
{"smiles": "CN1C(=O)[C@@H](CN2CCCCC2)C[C@H]1c1ccc(-c2ccc3c(c2)OCO3)cc1", "note": "(relative stereo) [Example H5, cis-5-(4-(Benzo[1,3]dioxol-5-yl)-phenyl)-1-methyl-3-piperidin-1-ylmethyl-pyrrolidin-2-one]", "melting point": "110 to 112"}
